{
  "source": "patent US4310660A",
  "about": "“Lincomycin compounds” (The Upjohn Company, priority 1980, dated 1982)",
  "key": {"[1]": {"test_system": "Bacteroides fragilis", "assay": "MIC vs. anaerobic bacteria, agar dilution", "format": "cell-based"}, "[2]": {"test_system": "Fusobacterium necrophorum", "assay": "MIC vs. anaerobic bacteria, agar dilution", "format": "cell-based", "settings": "UC6568, UC 6568, read-out: Minimal Inhibitory Concentration (MIC)"}, "[3]": {"test_system": "Bacteroides distasonis", "assay": "MIC vs. anaerobic bacteria, agar dilution", "format": "cell-based", "settings": "Parabacteroides distasonis, UC6518, UC 6518, read-out: Minimal Inhibitory Concentration (MIC)"}, "[4]": {"test_system": "Eubacterium limosum", "assay": "MIC vs. anaerobic bacteria, agar dilution", "format": "cell-based", "settings": "UC6515, UC 6515, read-out: Minimal Inhibitory Concentration (MIC)"}, "[5]": {"test_system": "Peptococcus magnus", "assay": "MIC vs. anaerobic bacteria, agar dilution", "format": "cell-based", "settings": "Finegoldia magna, UC6258, UC 6258, read-out: Minimal Inhibitory Concentration (MIC)"}, "[6]": {"test_system": "S. aureus", "assay": "Mouse Protection Test", "format": "in vivo", "settings": "Staphylococcus aureus", "description": "(§1) Immediately before use, the suspensions were thawed quickly and properly diluted. Infection was via the intrapertioneal route.\n(§2) Treatment of the infected groups was begun immediately and continued once per day for 4 days (first 24 hr period=1). Groups of untreated mice served as virulence controls for the culture.\n(§3) Seven days after the treatment regimen was begun the surviving animals were sacrificed and the median protective dose of the antibiotic calculated on the basis of mortality rates in the treatment groups. The median protective dose and its 95% confidence interval were calculated according to the method of Spearmen & Karber as programmed on a 360 digital computer."}, "[7]": {"test_system": "S. hemolyticus", "assay": "Mouse Protection Test", "format": "in vivo", "settings": "for ED50: 168 h", "description": "as §1, §2, §3"}, "[8]": {"test_system": "K. pneumoniae", "assay": "Mouse Protection Test", "format": "in vivo", "settings": "Klebsiella pneumoniae, 168 h; route not given; once per day for 4 days; read-out: CD50 (median protective dose)", "description": "as §1, §2, §3"}, "[9]": {"test_system": "D. pneumoniae I", "assay": "Mouse Protection Test", "format": "in vivo", "settings": "Streptococcus pneumoniae, 168 h, strain Felton I, read-out: Median Protective Dose (CD50)", "description": "as §1, §2, §3\nU-60,970E was also tested in vivo in standard laboratory mice which were experimentally infected with bacteria. The test was conducted in comparison with U-57,930E."}, "[10]": {"test_system": "Peptococcus aerogenes", "assay": "MIC vs. anaerobic bacteria, agar dilution", "format": "cell-based", "settings": "Peptoniphilus asaccharolyticus, UC6319, UC 6319, read-out: Minimal Inhibitory Concentration (MIC)"}, "[11]": {"test_system": "Clostridium perfringens", "assay": "microbe, parasite or virus in culture", "format": "cell-based"}, "[12]": {"test_system": "Bacteroides thetaiotaomicon", "assay": "MIC vs. anaerobic bacteria, agar dilution", "format": "cell-based", "settings": "UC6512, UC 6512, read-out: Minimal Inhibitory Concentration (MIC)"}, "[13]": {"test_system": "Peptostreptococcus anaerobius", "assay": "MIC vs. anaerobic bacteria, agar dilution", "format": "cell-based", "settings": "UC6321, UC 6321, read-out: Minimal Inhibitory Concentration (MIC)"}, "[14]": {"test_system": "Staphylococcus aureus", "assay": "MIC vs. aerobic bacteria, microplate broth-dilution (BHI)", "format": "cell-based", "settings": "Staphylococcus aureus, read-out: Minimal Inhibitory Concentration (MIC)"}, "[15]": {"test_system": "Bacteroides melaninogenicus", "assay": "MIC vs. anaerobic bacteria, agar dilution", "format": "cell-based", "settings": "UC6326, UC 6326, read-out: Minimal Inhibitory Concentration (MIC)"}, "[16]": {"test_system": "Clostridium botulinum A", "assay": "microbe, parasite or virus in culture", "format": "cell-based", "settings": "UC6506, read-out: Minimal Inhibitory Concentration (MIC)"}, "[17]": {"assay": "Acute I.P. toxicity in the mouse (LD50)", "format": "in vivo", "description": "This value is the resulting mean of two separate and identical LD50 determinations."}, "[18]": {"test_system": "Peptococcus asaccharolyticus", "assay": "MIC vs. anaerobic bacteria, agar dilution", "format": "cell-based", "settings": "Peptoniphilus asaccharolyticus, UC6214, UC 6214, read-out: Minimal Inhibitory Concentration (MIC)"}},
  "note": "Structures can show the parent of a compound that is named as a salt. Where two headings read alike, the source gives them in different places.",
  "data": [
    {"compound": "CC[C@@H]1CCN[C@H](C(=O)N[C@@H]([C@H]2O[C@H](SC)[C@H](O)[C@@H](O)[C@H]2O)[C@H](C)Cl)C1", "note": "[U-57,930E, 4-Cis-ethyl-1-pipecolic acid amide of 7-Cl-MTL.HCl]", "values": [
      {"measurement": "MIC", "setting": "[1]; UC6428, UC 6428, read-out: Minimal Inhibitory Concentration (MIC)", "result": 0.25, "unit": "µg/mL"},
      {"measurement": "MIC", "setting": "[1]; UC6513, UC 6513, read-out: Minimal Inhibitory Concentration (MIC)", "result": 0.12, "unit": "µg/mL"},
      {"measurement": "MIC", "setting": "[1]; UC6862, UC 6862, read-out: Minimal Inhibitory Concentration (MIC)", "result": 15.6, "unit": "µg/mL"},
      {"measurement": "MIC", "setting": "[1]; UC6864, UC 6864, read-out: Minimal Inhibitory Concentration (MIC)", "result": 2, "unit": "µg/mL"},
      {"measurement": "MIC", "setting": "[2]", "result": 0.06, "unit": "µg/mL"},
      {"measurement": "MIC", "setting": "[3]", "result": "≤ 0.03", "unit": "µg/mL"},
      {"measurement": "MIC", "setting": "[4]", "result": 2, "unit": "µg/mL"},
      {"measurement": "MIC", "setting": "[5]", "result": 0.06, "unit": "µg/mL"},
      {"measurement": "ED50", "setting": "[6]; 168 h, oral, once per day for 4 days, 95% confidence interval, read-out: CD50 (median protective dose)", "result": "1 to 5", "unit": "mg/kg"},
      {"measurement": "ED50", "setting": "[6]; UC76, 168 h, strain UC 76, oral, read-out: Median Protective Dose (CD50)", "result": 8.12, "unit": "mg/kg"},
      {"measurement": "ED50", "setting": "[6]; UC76, sc, 168 h, strain UC 76, subcutaneous, read-out: Median Protective Dose (CD50)", "result": 1.07, "unit": "mg/kg"},
      {"measurement": "ED50", "setting": "[6]; sc, 168 h, read-out: CD50 (median protective dose)", "result": "< 5", "unit": "mg/kg"},
      {"measurement": "ED50", "setting": "[7]; oral, once per day for 4 days, 95% confidence interval, read-out: CD50 (median protective dose)", "result": 2.9, "unit": "mg/kg"},
      {"measurement": "ED50", "setting": "[7]; strain C203, oral, read-out: Median Protective Dose (CD50)", "result": 3.79, "unit": "mg/kg"},
      {"measurement": "Ratio (clindamycin / U-57930A CD50)", "setting": "[7]; oral", "result": 4.2},
      {"measurement": "ED50", "setting": "[7]; sc, strain C203, subcutaneous, read-out: Median Protective Dose (CD50)", "result": 0.38, "unit": "mg/kg"},
      {"measurement": "ED50", "setting": "[7]; sc, subcut., once per day for 4 days, 95% confidence interval, two experiments listed, read-out: CD50 (median protective dose)", "result": 0.25, "unit": "mg/kg"},
      {"measurement": "ED50", "setting": "[8]", "result": "> 320", "unit": "mg/kg"},
      {"measurement": "ED50", "setting": "[9]; oral", "result": 15.4, "unit": "mg/kg"},
      {"measurement": "ED50", "setting": "[9]; sc, subcutaneous", "result": 1.54, "unit": "mg/kg"},
      {"measurement": "MIC", "setting": "[10]", "result": 0.06, "unit": "µg/mL"},
      {"measurement": "MIC", "setting": "[11]; UC247, read-out: Minimal Inhibitory Concentration (MIC)", "result": 0.12, "unit": "µg/mL"},
      {"measurement": "MIC", "setting": "[11]; UC6509, read-out: Minimal Inhibitory Concentration (MIC)", "result": 0.12, "unit": "µg/mL"},
      {"measurement": "MIC", "setting": "[12]", "result": 0.5, "unit": "µg/mL"},
      {"measurement": "MIC", "setting": "[13]", "result": 0.12, "unit": "µg/mL"},
      {"measurement": "MIC", "setting": "[14]; UC76, S. aureus UC 76", "result": 0.1, "unit": "µg/mL"},
      {"measurement": "MIC", "setting": "[14]; UC570, S. aureus UC 570", "result": 0.39, "unit": "µg/mL"},
      {"measurement": "MIC", "setting": "[14]; UC571, S. aureus UC 571", "result": 0.78, "unit": "µg/mL"},
      {"measurement": "MIC", "setting": "[14]; UC746, S. aureus UC 746", "result": 0.05, "unit": "µg/mL"},
      {"measurement": "MIC", "setting": "[14]; UC6675, S. aureus UC 6675", "result": 0.39, "unit": "µg/mL"},
      {"measurement": "MIC", "setting": "[14]; UC6685, S. aureus UC 6685", "result": "> 25", "unit": "µg/mL"},
      {"measurement": "MIC", "setting": "[14]; UC6686, S. aureus UC 6686", "result": 0.2, "unit": "µg/mL"},
      {"measurement": "MIC", "setting": "[14]; UC6687, S. aureus UC 6687", "result": 0.2, "unit": "µg/mL"},
      {"measurement": "MIC", "setting": "[14]; UC6688, S. aureus UC 6688", "result": "> 25", "unit": "µg/mL"},
      {"measurement": "MIC", "setting": "[14]; UC6689, S. aureus UC 6689", "result": 0.78, "unit": "µg/mL"},
      {"measurement": "MIC", "setting": "[14]; UC6690, S. aureus UC 6690", "result": 0.2, "unit": "µg/mL"},
      {"measurement": "MIC", "setting": "[14]; UC6691, S. aureus UC 6691", "result": 0.2, "unit": "µg/mL"},
      {"measurement": "MIC", "setting": "[14]; UC6692, S. aureus UC 6692", "result": "> 25", "unit": "µg/mL"},
      {"measurement": "MIC", "setting": "[14]; UC6693, S. aureus UC 6693", "result": 0.78, "unit": "µg/mL"},
      {"measurement": "MIC", "setting": "[14]; UC6694, S. aureus UC 6694", "result": "> 25", "unit": "µg/mL"},
      {"measurement": "MIC", "setting": "[14]; UC6695, S. aureus UC 6695", "result": 0.39, "unit": "µg/mL"},
      {"measurement": "MIC", "setting": "[14]; UC6696, S. aureus UC 6696", "result": 0.39, "unit": "µg/mL"},
      {"measurement": "MIC", "setting": "[15]", "result": 0.06, "unit": "µg/mL"},
      {"measurement": "MIC", "setting": "[16]", "result": "≤ 0.03", "unit": "µg/mL"},
      {"measurement": "LD50 as multiple of the LD50 for clindamycin HCl", "setting": "[17]", "result": "approximately 2 times"},
      {"measurement": "acute I.P. toxicity relative to clindamycin HCl", "setting": "[17]", "result": "approximately one-half"},
      {"measurement": "LD50", "setting": "[17]; in vivo, ip, mean of two determinations", "result": 592, "unit": "mg/kg"},
      {"measurement": "MIC", "setting": "[18]", "result": 0.25, "unit": "µg/mL"}
    ]}
  ]
}
